For orientation: IC50 means the concentration needed to halve the response being measured. Lower therefore signals greater potency.

The results in this text go back to BindingDB's records for doi:10.1016/j.bmcl.2013.03.113 (Vanderbilt University Medical Center, 2013).

In the assay the target is T1, Bone morphogenetic protein 4 (Mus musculus, UniProt P21275).
T1 sequence (P21275 whole entry): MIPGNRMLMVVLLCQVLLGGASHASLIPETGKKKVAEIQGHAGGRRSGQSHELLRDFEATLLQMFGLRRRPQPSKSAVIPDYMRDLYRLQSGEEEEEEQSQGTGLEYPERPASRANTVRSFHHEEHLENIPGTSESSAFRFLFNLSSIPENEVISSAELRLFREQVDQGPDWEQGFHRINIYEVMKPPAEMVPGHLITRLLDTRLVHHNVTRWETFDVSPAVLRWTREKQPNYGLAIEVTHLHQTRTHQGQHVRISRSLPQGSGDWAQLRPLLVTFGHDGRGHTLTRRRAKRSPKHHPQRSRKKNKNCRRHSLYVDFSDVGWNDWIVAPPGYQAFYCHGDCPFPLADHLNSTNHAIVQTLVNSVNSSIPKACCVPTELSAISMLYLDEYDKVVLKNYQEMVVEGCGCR
Put plainly: Inhibition of BMP4 in mouse C2C12BRA cells after 14 hrs by luciferase reporter gene assay.

As for `c1ccc2c(-c3cnn4cc(-c5ccc(N6CCOCC6)cc5)cnc34)csc2c1`, half-maximal inhibition (IC50) required 418 nM.
For `Clc1cc(-c2cnn3cc(-c4ccc(N5CCOCC5)cc4)cnc23)ccn1` the value was 529 nM.
